Experimental data taken from ChEMBL document CHEMBL4004838, “Design and synthesis of novel phenyl -1, 4-beta-carboline-hybrid molecules as potential anticancer agents” (Eur J Med Chem, 2017).

Tests used:
Assay type in all cases: functional
HL-60(TB) = test: Growth inhibition of human HL-60(TB) cells assessed as cell growth at 10^-5 M incubated for 48 hrs by sulforhodamine B assay relative to control; details: HL-60, 48 h, read-out: Activity
MOLT-4 [1] = test: Growth inhibition of human MOLT4 cells assessed as cell growth at 10^-5 M incubated for 48 hrs by sulforhodamine B assay relative to control; details: MOLT-4, 48 h, read-out: Activity
RPMI-8226 = test: Growth inhibition of human RPMI8226 cells assessed as cell growth at 10^-5 M incubated for 48 hrs by sulforhodamine B assay relative to control; details: RPMI-8226, 48 h, read-out: Activity
EKVX = test: Growth inhibition of human EKVX cells assessed as cell growth at 10^-5 M incubated for 48 hrs by sulforhodamine B assay relative to control; details: read-out: Activity
NCI-H226 = test: Growth inhibition of human NCI-H226 cells assessed as cell growth at 10^-5 M incubated for 48 hrs by sulforhodamine B assay relative to control; details: NCI-H226, 48 h, read-out: Activity
HCT-116 = test: Growth inhibition of human HCT116 cells assessed as cell growth at 10^-5 M incubated for 48 hrs by sulforhodamine B assay relative to control; details: HCT-116, 48 h, read-out: Activity
HT-29 = test: Growth inhibition of human HT-29 cells assessed as cell growth at 10^-5 M incubated for 48 hrs by sulforhodamine B assay relative to control; details: HT-29, 48 h, read-out: Activity
KM12 = test: Growth inhibition of human KM12 cells assessed as cell growth at 10^-5 M incubated for 48 hrs by sulforhodamine B assay relative to control; details: KM12, 48 h, read-out: Activity
SW-620 = test: Growth inhibition of human SW620 cells assessed as cell growth at 10^-5 M incubated for 48 hrs by sulforhodamine B assay relative to control; details: SW-620, 48 h, read-out: Activity
SF-268 = test: Growth inhibition of human SF268 cells assessed as cell growth at 10^-5 M incubated for 48 hrs by sulforhodamine B assay relative to control; details: SF-268, 48 h, read-out: Activity
SF-295 = test: Growth inhibition of human SF295 cells assessed as cell growth at 10^-5 M incubated for 48 hrs by sulforhodamine B assay relative to control; details: SF-295, 48 h, read-out: Activity
SNB-19 = test: Growth inhibition of human SNB19 cells assessed as cell growth at 10^-5 M incubated for 48 hrs by sulforhodamine B assay relative to control; details: SNB-19, 48 h, read-out: Activity
SNB-75 = test: Growth inhibition of human SNB75 cells assessed as cell growth at 10^-5 M incubated for 48 hrs by sulforhodamine B assay relative to control; details: SNB-75, 48 h, read-out: Activity
U-251 = test: Growth inhibition of human U251 cells assessed as cell growth at 10^-5 M incubated for 48 hrs by sulforhodamine B assay relative to control; details: U-251, 48 h, read-out: Activity
Malme-3M = test: Growth inhibition of human MALME-3M cells assessed as cell growth at 10^-5 M incubated for 48 hrs by sulforhodamine B assay relative to control; details: read-out: Activity
UACC-62 = test: Growth inhibition of human UACC62 cells assessed as cell growth at 10^-5 M incubated for 48 hrs by sulforhodamine B assay relative to control; details: UACC-62, 48 h, read-out: Activity
OVCAR-3 = test: Growth inhibition of human OVCAR3 cells assessed as cell growth at 10^-5 M incubated for 48 hrs by sulforhodamine B assay relative to control; details: OVCAR-3, 48 h, read-out: Activity
OVCAR-4 = test: Growth inhibition of human OVCAR4 cells assessed as cell growth at 10^-5 M incubated for 48 hrs by sulforhodamine B assay relative to control; details: OVCAR-4, 48 h, read-out: Activity
ACHN = test: Growth inhibition of human ACHN cells assessed as cell growth at 10^-5 M incubated for 48 hrs by sulforhodamine B assay relative to control; details: read-out: Activity
CAKI-1 = test: Growth inhibition of human Caki1 cells assessed as cell growth at 10^-5 M incubated for 48 hrs by sulforhodamine B assay relative to control; details: CAKI-1, 48 h, read-out: Activity
RXF 393 = test: Growth inhibition of human RXF393 cells assessed as cell growth at 10^-5 M incubated for 48 hrs by sulforhodamine B assay relative to control; details: RXF 393, 48 h, read-out: Activity
SN12C = test: Growth inhibition of human SN12C cells assessed as cell growth at 10^-5 M incubated for 48 hrs by sulforhodamine B assay relative to control; details: read-out: Activity
PC-3 = test: Growth inhibition of human PC3 cells assessed as cell growth at 10^-5 M incubated for 48 hrs by sulforhodamine B assay relative to control; details: PC-3, 48 h, read-out: Activity
MDA-MB-231 = test: Growth inhibition of human MDA-MB-231 cells assessed as cell growth at 10^-5 M incubated for 48 hrs by sulforhodamine B assay relative to control; details: MDA-MB-231, 48 h, read-out: Activity
BT-549 = test: Growth inhibition of human BT549 cells assessed as cell growth at 10^-5 M incubated for 48 hrs by sulforhodamine B assay relative to control; details: BT-549, 48 h, read-out: Activity
T47D = test: Growth inhibition of human T47D cells assessed as cell growth at 10^-5 M incubated for 48 hrs by sulforhodamine B assay relative to control; details: read-out: Activity
UACC-257 = test: Growth inhibition of human UACC257 cells assessed as cell growth at 10^-5 M incubated for 48 hrs by sulforhodamine B assay relative to control; details: UACC-257, 48 h, read-out: Activity
IGROV-1 = test: Growth inhibition of human IGROV1 cells assessed as cell growth at 10^-5 M incubated for 48 hrs by sulforhodamine B assay relative to control; details: IGROV-1, 48 h, read-out: Activity
MOLT-4 [2] = test: Growth inhibition of human MOLT4 cells incubated for 48 hrs by sulforhodamine B assay; details: MOLT-4, 48 h
NCI-H522 = test: Growth inhibition of human NCI-H522 cells assessed as cell growth at 0.01 uM incubated for 48 hrs by sulforhodamine B assay relative to control; details: NCI-H522, 48 h, read-out: Activity
Hs-578T = test: Growth inhibition of human Hs 578T cells assessed as cell growth at 0.1 uM incubated for 48 hrs by sulforhodamine B assay relative to control; details: read-out: Activity
COLO 205 = test: Growth inhibition of human COLO205 cells assessed as cell growth at 100 uM incubated for 48 hrs by sulforhodamine B assay relative to control; details: COLO 205, 48 h, read-out: Activity
[3] = read-out: LC50 (the source's name)
[4] = read-out: pLC50 (the source's name) (converted)

Structure (SMILES) | growth at 10 µM (HL-60(TB)) [%] | growth at 10 µM (MOLT-4 [1]) [%] | growth at 10 µM (RPMI-8226) [%] | growth at 10 µM (EKVX) [%] | growth at 10 µM (NCI-H226) [%] | growth at 10 µM (HCT-116) [%] | growth at 10 µM (HT-29) [%] | growth at 10 µM (KM12) [%] | growth at 10 µM (SW-620) [%] | growth at 10 µM (SF-268) [%] | growth at 10 µM (SF-295) [%] | growth at 10 µM (SNB-19) [%] | growth at 10 µM (SNB-75) [%] | growth at 10 µM (U-251) [%] | growth at 10 µM (Malme-3M) [%] | growth at 10 µM (UACC-62) [%] | growth at 10 µM (OVCAR-3) [%] | growth at 10 µM (SN12C) [%] | growth at 10 µM (PC-3) [%] | growth at 10 µM (BT-549) [%] | further results
O=Cc1ccc(C2NCCc3c2[nH]c2ccccc32)cc1 (configuration not stated) | 89.4 | 95.5 | 101 | 89.6 | 78.2 | 78.4 | 98.9 | 107 | 88.8 | 101 | 101 | 100 | 77.8 | 95.3 | 100 | 81.2 | 99.7 | 89 | 84.3 | 90.1 | growth at 10 µM (OVCAR-4): 97.4%; growth at 10 µM (ACHN): 95%; growth at 10 µM (CAKI-1): 72.4%; growth at 10 µM (RXF 393): 99.6%; growth at 10 µM (MDA-MB-231): 72.1%; growth at 10 µM (T47D): 92.3%
Cc1n[nH]c2c1C(c1ccc(C3NCCc4c3[nH]c3ccccc43)cc1)C(C#N)=C(N)O2 (configuration not stated) | 101 | 81.1 | 72.1 | 83.6 | 87 | 76.5 | 91.7 | 91.9 | 89.9 | 92.9 | 86.9 | 94.2 | 70.4 | 87.5 | 77 | 57.8 | 96.6 | 87 | 72.3 | 81.8 | growth at 10 µM (OVCAR-4): 85.7%; growth at 10 µM (ACHN): 83.5%; growth at 10 µM (CAKI-1): 63.2%; growth at 10 µM (RXF 393): 99.2%; growth at 10 µM (MDA-MB-231): 77.6%; growth at 10 µM (T47D): 75.2%
Cc1ccc(S(=O)(=O)N2CCc3c([nH]c4ccccc34)C2c2ccc(-c3nc4ccccc4[nH]3)cc2)cc1 (configuration not stated) | 105 | 95.9 | 99.1 | 87.4 | 86.4 | 88.3 | 87.2 | 86.8 | 90.1 | 91.3 | 91.9 | 91.3 | 74 | 98 | 89.7 | 65 | 93.5 | 87.7 | 84.2 | 77.1 | growth at 10 µM (UACC-257): 102%; growth at 10 µM (IGROV-1): 86.5%; growth at 10 µM (OVCAR-4): 85.8%; growth at 10 µM (ACHN): 79.1%; growth at 10 µM (CAKI-1): 73.5%; growth at 10 µM (RXF 393): 96.4%; growth at 10 µM (MDA-MB-231): 73.4%; growth at 10 µM (T47D): 89.1%
c1ccc2[nH]c(-c3ccc(-c4nccc5c4[nH]c4ccccc45)cc3)nc2c1 | – | – | – | 13 to 81.2 | – | 1 to 16.3 | – | 19 to 76.6 | – | 52.2 | – | 27 to 55.1 | – | – | – | – | – | 60.9 | 47 to 85.7 | – | GI50 (MOLT-4 [2]; read-out: GI50): 2.32 µM; CC50 (MOLT-4 [2]; [3]): 7.51 µM; TGI (MOLT-4 [2]; read-out: TGI): 6.11 µM; GI50 (MOLT-4 [2]; read-out: pGI50 (converted)): 2.29 µM; CC50 (MOLT-4 [2]; [4]): 75.9 µM; TGI (MOLT-4 [2]; read-out: pTGI (converted)): 6.17 µM; growth at 10 µM (IGROV-1): 25 to 94.5%; growth at 0.01 µM (NCI-H522): 91%; growth at 0.1 µM (Hs-578T): 100%; growth at 100 µM (COLO 205): 65%
Cc1ccc(S(=O)(=O)N2CCc3c([nH]c4ccccc34)C2c2ccc(C=O)cc2)cc1 (configuration not stated) | 105 | 95.9 | 99.1 | 87.4 | 86.4 | 88.3 | 87.2 | 86.8 | 90.1 | 91.3 | 91.9 | 91.3 | 74 | 98 | 89.7 | 65 | 93.5 | 87.7 | 84.2 | 77.1 | growth at 10 µM (UACC-257): 102%; growth at 10 µM (IGROV-1): 86.5%; growth at 10 µM (OVCAR-4): 85.8%; growth at 10 µM (ACHN): 79.1%; growth at 10 µM (CAKI-1): 73.5%; growth at 10 µM (RXF 393): 96.4%; growth at 10 µM (MDA-MB-231): 73.4%; growth at 10 µM (T47D): 89.1%
c1ccc2c3c([nH]c2c1)C(c1ccc(C2NCCc4c2[nH]c2ccccc42)cc1)NCC3 (racemic) | – | – | – | – | – | – | – | – | – | – | – | – | – | – | – | – | – | – | – | 57 to 86.9 | CC50 (MOLT-4 [2]; [3]): 8.03 µM; GI50 (MOLT-4 [2]; read-out: pGI50 (converted)): 0.38 µM; CC50 (MOLT-4 [2]; [4]): 7.94 µM; TGI (MOLT-4 [2]; read-out: pTGI (converted)): 1.55 µM; growth at 10 µM (CAKI-1): -51%; growth at 0.01 µM (NCI-H522): 104%; growth at 0.1 µM (Hs-578T): 90%; growth at 100 µM (COLO 205): 84%
c1ccc2[nH]c(-c3ccc(C4NCCc5c4[nH]c4ccccc54)cc3)nc2c1 (configuration not stated) | 97.9 | 107 | 97.3 | 103 | 93.5 | 96.1 | 94.2 | 103 | 99.1 | 98.6 | 107 | 100 | 89 | 93.4 | 90 | 86.3 | 107 | 93.8 | 85 | 93.2 | growth at 10 µM (OVCAR-4): 97.9%; growth at 10 µM (ACHN): 102%; growth at 10 µM (CAKI-1): 77.5%; growth at 10 µM (RXF 393): 94.2%; growth at 10 µM (MDA-MB-231): 92.2%; growth at 10 µM (T47D): 90.8%
c1ccc2c(c1)[nH]c1c(-c3ccc(-c4nccc5c4[nH]c4ccccc45)cc3)nccc12 | 99.1 | 97 | 97.4 | 89.5 | 90.7 | 88.2 | 88.9 | 99.1 | 108 | 105 | 105 | 106 | 82.5 | 107 | 92.5 | 105 | 101 | 94.5 | 84.2 | 87.6 | growth at 10 µM (UACC-257): 119%; growth at 10 µM (IGROV-1): 88.8%; growth at 10 µM (OVCAR-4): 105%; growth at 10 µM (ACHN): 99.5%; growth at 10 µM (RXF 393): 111%; growth at 10 µM (MDA-MB-231): 111%; growth at 10 µM (T47D): 75.8%
